# From patent US8748423B2, “Compositions and methods for the prevention and treatment of cancer” (Kinex Pharmaceuticals, LLC, priority 2010, dated 2014)
# “Also recorded” adds a separate entry of the source. Where two headings read alike, the source gives them in different places.
# Columns and labels:
# [1] = plasma and brain exposure after single oral dose; type: in vivo, Male CD-1 Mice; conditions: for Brain Concentrations, Group A, B, C / Plasma Concentrations, Group A, B, C / concentration at 0 h: 0 hr; for Kp: brain and plasma, read-out: AUClast Brain/AUClast Plasma Ratio
# Description: […] The concentration of Compound 76 was measured in plasma and in brain tissue homogenates.
# Plasma concentrations were measured in mice after oral administration. All doses were formulated in purified water. Four groups of male CD-1 mice were dosed after an overnight fast and fed 4 hours post-dose. Dosing was as follows:
# Protein was precipitated with 0.25 mL acetonitrile for plasma, 0.25 mL for brain. After centrifugation, supernatant was directly injected into an LC/MS system. The limit of quantitation was 1 ng/mL using a 50 μL aliquot for plasma and a […] aliquot for brain. The standard curve was 1 to 1,000 ng/mL for both plasma and brain.
# HPLC conditions were as follows:
# • HPLC System: Shimadzu SCL-10 System • Analytical Column: Aquasil C18 5 μm 100×2 mm column. • Column Temperature: Ambient temperature • Autosampler Temperature: Ambient temperature • Mobile Phase • A) 10 mM Ammonium formate in water (pH 4). • B) Acetonitrile. • Flow Rate: 0.6 mL/min • Injection Volume: 2 μL
# LN-18 = experiment: brain tumor cell line growth inhibition, LN-18; type: cell-based; conditions: Homo sapiens; LN-18, glioblastoma; glioma
# Description: (§1) These GI50s were determined using standard tumor growth inhibition assays.
# [2] = system: various brain tumor cell lines; experiment: proliferation in various brain tumor cell lines; type: cell-based, human and mouse; conditions: all brain tumor cell lines evaluated
# Description: Compound 76 is a synthetic, orally bioavailable, novel small molecule microtubule polymerization inhibitor with very high CNS penetration. The efficacy of Compound 76 as a novel anti-cancer agent is tested directly using mouse model of malignant glioma. Compound 76 is an orally administered tubulin polymerization inhibitor that binds to a novel site on heterodimeric tubulin, and to a novel conformation of the dimer. Compound 76 can inhibit Src signaling in tumors. Compound 76 has been evaluated in various brain tumor cell lines. […] When administered orally to mice at a dose of 10 mg/kg, the ratio of drug levels in the brain compared to plasma levels was 0.76, indicating excellent BBB penetration as in Example 1.
# Compound 76 was evaluated in various human and mouse brain tumor cells derived from glioblastoma multiforme, astrocytoma and medulloblastoma. […] When administered to mice Compound 76 penetrated the brain by 76%, thereby successfully addressing the first major challenge in brain cancer drug discovery. Drugs which are used to treat brain tumors often penetrate only 20% or less.
# [3] = body weight in GL261 glioma survival study; type: in vivo, C57BL/6 mice
# Description: The studies were conducted in C57BL/6 mice. GL261 glioma cells (1×10^5 in 5 μl DMEM) were implanted intracranial coordinates: bregma, lateral 2.0 mm, anterior 1.2 mm, 3.0 mm depth dura. Treatment was initiated 3 days post implantation.
# FIGS. 2A-F show the weight gain in each of the C57BL/6 mice in the different treatment groups. The average weight at endpoint for each of the treatment groups is shown below in Table 12. FIG. 3 is a graph showing the average weights over a 40-day period for each of the treatment groups.
# GL261 glioma = experiment: re-challenge of long term survivor mice with s.c. GL261 cells; type: in vivo, C57BL/6 mice; conditions: 1×10^6 s.c. GL261 cells; mice cured by Compound 76
# Text: FIG. 5 is a graph of re-challenge of Compound 76 treated long term survivor mice from FIG. 4B with 1×10^6 s.c. GL261 glioa cells. Age and litter matched controls were implanted.
# SK-N-MC = experiment: brain tumor cell line growth inhibition, SK-N-MC; type: cell-based; conditions: Homo sapiens, neuroepithelioma
# Description: as §1
# SK-N-FI = experiment: brain tumor cell line growth inhibition, SK-N-FI; type: cell-based; conditions: Homo sapiens, neuroblastoma
# Description: as §1
# GL261 = experiment: brain tumor cell line growth inhibition, GL261; type: cell-based; conditions: GL261, mouse glioblastoma
# Description: as §1
# [4] = PO 10 mg/kg (Group 3), single values
# [5] = PO 50 mg/kg (Group 4), single values
# [6] = male, CD-1, mouse, brain, po, 10 mg/kg, PO 10 mg/kg (Group 3), BLQ = 0, read-out: Brain Concentrations, Mean
# [7] = male, CD-1, mouse, brain, po, 50 mg/kg, PO 50 mg/kg (Group 4), read-out: Brain Concentrations, Mean
# [8] = male, CD-1, mouse, plasma, po, 10 mg/kg, PO 10 mg/kg (Group 3), read-out: Plasma Concentrations, Mean
# [9] = male, CD-1, mouse, plasma, po, 50 mg/kg, PO 50 mg/kg (Group 4), read-out: Plasma Concentrations, Mean
# [10] = male, CD-1, mouse, po, Brain, single dose of 50 mg/kg (Group 4)
# [11] = male, CD-1, mouse, po, Plasma, single dose of 50 mg/kg (Group 4)
# [12] = male, CD-1, mouse, Brain, single oral dose of 10 mg/kg
# [13] = male, CD-1, mouse, Plasma, single oral dose of 10 mg/kg
smiles,measurement,setting,value
O=C(Cc1ccc(-c2ccc(N3CCOCC3)cc2)cn1)NCc1cccc(F)c1 [Compound 76],AUClast,"[1]; Brain, single dose of 50 mg/kg (Group 4)",3338 ng·h/g
same,AUClast,"[1]; Brain, single oral dose of 10 mg/kg",656 ng·h/g
same,"Brain Concentrations, Group A, B, C",[1]; [4],BLQ (Below Limit of Quantitation (1 ng/mL))
same,"Plasma Concentrations, Group A, B, C",[1]; [4],BLQ (Below Limit of Quantitation (1 ng/mL))
same,"Brain Concentrations, Group A, B, C",[1]; [5],BLQ (Below Limit of Quantitation (1 ng/mL))
same,"Plasma Concentrations, Group A, B, C",[1]; [5],BLQ (Below Limit of Quantitation (1 ng/mL))
same,Kp,"[1]; male, CD-1, mouse, oral 10 mg/kg",0.76
same,Kp,"[1]; male, CD-1, mouse, oral 50 mg/kg",0.61
same,concentration at 0 h,[1]; [6],0 ng/g
same,concentration at 0.5 h,"[1]; male, CD-1, mouse, brain, po, 10 mg/kg, PO 10 mg/kg (Group 3), 0.5 hr, read-out: Brain Concentrations, Mean",99.8 ng/g
same,concentration at 1 h,"[1]; male, CD-1, mouse, brain, po, 10 mg/kg, PO 10 mg/kg (Group 3), 1 hr, read-out: Brain Concentrations, Mean",279 ng/g
same,concentration at 1 h,"[1]; male, CD-1, mouse, brain, po, 10 mg/kg, PO 10 mg/kg (Group 3), 1 hr, single values, read-out: Brain Concentrations, Group A, B, C",228 ng/g
same,concentration at 2 h,"[1]; male, CD-1, mouse, brain, po, 10 mg/kg, PO 10 mg/kg (Group 3), read-out: Brain Concentrations, Mean",175 ng/g
same,concentration at 5 h,[1]; [6],31.8 ng/g
same,concentration at 5 h,"[1]; male, CD-1, mouse, brain, po, 10 mg/kg, PO 10 mg/kg (Group 3), single values, read-out: Brain Concentrations, Group A, B, C",47.5 ng/g
same,concentration at 0 h,"[1]; male, CD-1, mouse, brain, po, 50 mg/kg, PO 50 mg/kg (Group 4), BLQ = 0, read-out: Brain Concentrations, Mean",0 ng/g
same,concentration at 0.5 hr,"[1]; male, CD-1, mouse, brain, po, 50 mg/kg, PO 50 mg/kg (Group 4), 0.5 hr, read-out: Brain Concentrations, Mean",1380 ng/g
same,concentration at 1 hr,"[1]; male, CD-1, mouse, brain, po, 50 mg/kg, PO 50 mg/kg (Group 4), 1 hr, read-out: Brain Concentrations, Mean",1100 ng/g
same,concentration at 2 h,[1]; [7],758 ng/g
same,concentration at 5 h,[1]; [7],207 ng/g
same,concentration at 0 h,"[1]; male, CD-1, mouse, plasma, po, 10 mg/kg, PO 10 mg/kg (Group 3), BLQ = 0, read-out: Plasma Concentrations, Mean",0 ng/mL
same,concentration at 0.5 h,"[1]; male, CD-1, mouse, plasma, po, 10 mg/kg, PO 10 mg/kg (Group 3), 0.5 hr, read-out: Plasma Concentrations, Mean",148 ng/mL
same,concentration at 1 h,"[1]; male, CD-1, mouse, plasma, po, 10 mg/kg, PO 10 mg/kg (Group 3), 1 hr, read-out: Plasma Concentrations, Mean",426 ng/mL
same,concentration at 2 h,[1]; [8],205 ng/mL
same,concentration at 5 h,[1]; [8],40 ng/mL
same,concentration at 0 h,"[1]; male, CD-1, mouse, plasma, po, 50 mg/kg, PO 50 mg/kg (Group 4), BLQ = 0, read-out: Plasma Concentrations, Mean",0 ng/mL
same,concentration at 0.5 h,"[1]; male, CD-1, mouse, plasma, po, 50 mg/kg, PO 50 mg/kg (Group 4), 0.5 hr, read-out: Plasma Concentrations, Mean",1800 ng/mL
same,concentration at 0.5 h,"[1]; male, CD-1, mouse, plasma, po, 50 mg/kg, PO 50 mg/kg (Group 4), 0.5 hr, single values, read-out: Plasma Concentrations, Group A, B, C",1490 ng/mL
same,concentration at 1 h,"[1]; male, CD-1, mouse, plasma, po, 50 mg/kg, PO 50 mg/kg (Group 4), 1 hr, read-out: Plasma Concentrations, Mean",2140 ng/mL
same,concentration at 2 h,[1]; [9],1300 ng/mL
same,concentration at 5 h,[1]; [9],230 ng/mL
same,Cmax,[1]; [10],1380 ng/g
same,Tmax,[1]; [10],0.5 h
same,AUC(0-t),[1]; [11],5440 ng·h/mL
same,Cmax,[1]; [11],2140 ng/mL
same,Tmax,[1]; [11],1 h
same,Cmax,[1]; [12],279 ng/g
same,Tmax,[1]; [12],1 h
same,AUC(0-t),[1]; [13],863 ng·h/mL
same,Cmax,[1]; [13],426 ng/mL
same,Tmax,[1]; [13],1 h
same,brain penetration from plasma,[1]; single oral dose of 10 mg/kg,76%
same,IC50,LN-18,2.9 nM
same,GI50,[2],< 55 nM
same,Average weight at endpoint,[3]; 15 mg/kg,16.9 g
same,Average weight at endpoint,[3]; 30 mg/kg,15.0 g
same,second GL261 tumor challenge in long term survivors,GL261 glioma,rejected the second GL261 tumor challenge; also recorded: rejected a second GL261 tumor implant challenge
same,IC50,SK-N-MC,0.13 nM
same,IC50,SK-N-FI,0.46 nM
same,IC50,GL261,8.8 nM
